The results in this text go back to ChEMBL document CHEMBL3714741, “Compounds and compositions as ITPKB inhibitors” (2011).

Calls of active or inactive are those of the source. The rule behind the calls is not given here.

In this experiment the target is T1, Inositol-trisphosphate 3-kinase B (Homo sapiens) (UniProt P27987).
T1 sequence (whole entry): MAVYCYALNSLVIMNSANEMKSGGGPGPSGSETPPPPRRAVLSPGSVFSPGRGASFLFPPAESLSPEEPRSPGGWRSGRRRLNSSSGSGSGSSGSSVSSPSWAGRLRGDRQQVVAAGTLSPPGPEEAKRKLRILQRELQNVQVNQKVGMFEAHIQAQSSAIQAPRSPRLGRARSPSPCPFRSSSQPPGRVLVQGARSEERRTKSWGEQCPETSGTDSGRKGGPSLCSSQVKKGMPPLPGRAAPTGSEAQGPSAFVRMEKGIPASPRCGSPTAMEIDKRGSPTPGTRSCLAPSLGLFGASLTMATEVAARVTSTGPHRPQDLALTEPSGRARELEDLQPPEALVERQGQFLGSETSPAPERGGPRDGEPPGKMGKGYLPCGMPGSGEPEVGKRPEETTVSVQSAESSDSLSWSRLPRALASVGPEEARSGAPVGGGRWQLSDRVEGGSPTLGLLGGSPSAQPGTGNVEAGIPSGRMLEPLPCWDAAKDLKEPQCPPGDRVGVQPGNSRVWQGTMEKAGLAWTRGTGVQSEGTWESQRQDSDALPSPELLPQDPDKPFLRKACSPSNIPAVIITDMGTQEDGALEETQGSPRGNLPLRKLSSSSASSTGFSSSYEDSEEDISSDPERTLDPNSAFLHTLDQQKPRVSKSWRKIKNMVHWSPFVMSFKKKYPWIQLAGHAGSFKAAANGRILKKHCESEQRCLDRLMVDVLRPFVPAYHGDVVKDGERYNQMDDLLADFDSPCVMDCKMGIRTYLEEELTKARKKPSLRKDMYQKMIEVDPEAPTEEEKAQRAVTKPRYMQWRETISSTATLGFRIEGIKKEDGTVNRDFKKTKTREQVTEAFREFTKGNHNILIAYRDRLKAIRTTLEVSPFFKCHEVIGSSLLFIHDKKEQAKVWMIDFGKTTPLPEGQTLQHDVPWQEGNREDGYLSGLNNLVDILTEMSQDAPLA
Description: Inhibition of ITPKb in human Jurkat cells assessed as reduction in conversion of IP3 to IP4 using [3H]-myo-inositol incubated for 5 mins by beta-RAM radio-HPLC method. The experiment is classed as cell-based.

For `C[C@@H]1CN(Cc2c[nH]nc2C(=O)Nc2nc[nH]c2C#N)CCN1c1ccc(C(F)(F)F)cn1`, the inhibition entry was “Active”. As to `C[C@@H]1CN(Cc2c[nH]nc2-c2ccc(C#N)c(=O)[nH]2)CCN1c1ccc(C(F)(F)F)cn1`, the inhibition result is “Active”. To `C[C@@H]1CN(Cc2c[nH]nc2-c2cc(C(=O)N[C@@H](C)CO)c[nH]2)CCN1c1ccc(C(F)(F)F)cn1` belongs “Active”; to `C[C@@H]1CN(Cc2c[nH]nc2-c2nc3cc(C#N)ccc3[nH]2)CCN1c1ccc(C(F)(F)F)cn1`, “Active”. To `C[C@@H]1CN(Cc2c[nH]nc2-c2cc(C(=O)NCCO)c[nH]2)CCN1c1ccc(C(F)(F)F)cn1` belongs “Active”; to `C[C@@H]1CN(Cc2c[nH]nc2-c2nc(C(=N)N)c[nH]2)CCN1c1ccc(C(F)(F)F)cn1`, “Active”. To `C[C@@H]1CN(Cc2c[nH]nc2/C=C2\NC(=S)NC2=O)CCN1c1ccc(C(F)(F)F)cn1` belongs “Active”.

Take `C[C@@H]1CN(Cc2c[nH]nc2-c2ccc3cnccc3c2)CCN1c1ccc(C(F)(F)F)cn1`: the inhibition entry was “Active”. As to `C[C@@H]1CN(Cc2c[nH]nc2C(=O)Nc2cc(-c3ccco3)n[nH]2)CCN1c1ccc(C(F)(F)F)cn1`, the inhibition entry was “Active”. In the case of `C[C@@H]1CN(Cc2c[nH]nc2C(=O)Nc2n[nH]cc2C#N)CCN1c1ccc(C(F)(F)F)cn1`, the inhibition entry is “Active”. Next, `C[C@@H]1CN(Cc2c[nH]nc2-c2nc(-c3ccccc3)c[nH]2)CCN1c1ccc(C(F)(F)F)cn1`: “Active”.

Consider `Cc1cc(NC(=O)c2n[nH]cc2CN2CCN(c3ccc(C(F)(F)F)cn3)[C@H](C)C2)n(CCN(C)C)n1`, for which the inhibition entry is “Active”.

For `Cc1nc(-c2n[nH]cc2CN2CCN(c3ccc(C(F)(F)F)cn3)[C@H](C)C2)[nH]c1C`, the inhibition result was “Active”. Next, `CNC(=O)c1c[nH]c(-c2n[nH]cc2CN2CCN(c3ccc(C(F)(F)F)cn3)[C@H](C)C2)c1`: “Active”; `NC(=O)c1c[nH]c(-c2n[nH]cc2CN2CCN(c3ccc(C(F)(F)F)cn3)[C@H](C(F)(F)F)C2)c1`: “Active”. To `C[C@@H]1CN(Cc2c[nH]nc2-c2ccc(C#N)[nH]2)CCN1c1ccc(C(F)(F)F)cn1` belongs “Active”; to `FC(F)(F)c1ccc(N2CCN(Cc3c[nH]nc3-c3cccs3)CC2)nc1`, “Active”; to `C[C@@H]1CN(Cc2c[nH]nc2C2=CCNCC2)CCN1c1ccc(C(F)(F)F)cn1`, “Active”. Next, `C[C@@H]1CN(Cc2c[nH]nc2-c2cc(C(N)=O)c[nH]2)CCN1c1ccc(C(F)(F)F)cn1`: “Active”. Consider `C[C@@H]1CN(Cc2c[nH]nc2-c2nc(C(F)(F)F)c[nH]2)CCN1c1ccc(C(F)(F)F)cn1`, for which the inhibition result was “Active”. In the case of `C[C@@H]1CN(Cc2c[nH]nc2/C=C2\NC(=N)NC2=O)CCN1c1ccc(C(F)(F)F)cn1`, the inhibition entry is “Active”. To `C[C@@H]1CN(Cc2c[nH]nc2C2CCN(C=O)CC2)CCN1c1ccc(C(F)(F)F)cn1` belongs “Active”; to `CC(=O)N1CC=C(c2n[nH]cc2CN2CCN(c3ccc(C(F)(F)F)cn3)[C@H](C)C2)CC1`, “Active”; to `C[C@@H]1CN(Cc2c[nH]nc2-c2cc(C(=O)O)co2)CCN1c1ccc(C(F)(F)F)cn1`, “Active”. Regarding `C[C@@H]1CN(Cc2c[nH]nc2-c2ccc(C(N)=O)[nH]2)CCN1c1ccc(C(F)(F)F)cn1`, the inhibition entry is “Active”. Next, `C[C@@H]1CN(Cc2c[nH]nc2-c2ccnc3[nH]ccc23)CCN1c1ccc(C(F)(F)F)cn1`: “Active”; `COC(=O)c1ccc(-c2n[nH]cc2CN2CCN(c3ccc(C(F)(F)F)cn3)[C@H](C)C2)o1`: “Active”; `C[C@@H]1CN(Cc2c[nH]nc2-c2nc3ccccc3[nH]2)CCN1c1ccc(C(F)(F)F)cn1`: “Active”.

As for `C[C@@H]1CN(Cc2c[nH]nc2-c2nc3cnccc3[nH]2)CCN1c1ccc(C(F)(F)F)cn1`, the inhibition entry was “Active”. `C[C@@H]1CN(Cc2c[nH]nc2-c2ccc(C(=O)O)o2)CCN1c1ccc(C(F)(F)F)cn1`: the inhibition entry was “Active”. Next, `C[C@@H]1CN(Cc2c[nH]nc2-c2c[nH]c(C(N)=O)c2)CCN1c1ccc(C(F)(F)F)cn1`: “Active”. For `C[C@@H]1CN(Cc2c[nH]nc2-c2ccc(C(N)=O)o2)CCN1c1ccc(C(F)(F)F)cn1`, the inhibition entry was “Active”.

For the compound `C[C@@H]1CN(Cc2c[nH]nc2-c2nc(C#N)c[nH]2)CCN1c1ccc(C(F)(F)F)cn1`, the inhibition entry was “Active”. Regarding `C[C@@H]1CN(Cc2c[nH]nc2/C=C2\NC(=O)NC2=O)CCN1c1ccc(C(F)(F)F)cn1`, the inhibition result is “Active”. Next, `C[C@@H]1CN(Cc2c[nH]nc2-c2nc3c([nH]2)CCCC3)CCN1c1ccc(C(F)(F)F)cn1`: “Active”; `C[C@@H]1CN(Cc2c[nH]nc2-c2c[nH]c(C#N)c2)CCN1c1ccc(C(F)(F)F)cn1`: “Active”; `C[C@@H]1CN(Cc2c[nH]nc2C(=O)N2CC(O)C2)CCN1c1ccc(C(F)(F)F)cn1`: “Active”. Turning to `C[C@@H]1CN(Cc2c[nH]nc2-c2c[nH]c3ncccc23)CCN1c1ccc(C(F)(F)F)cn1`, the inhibition entry is “Active”. To `C[C@@H]1CN(Cc2c[nH]nc2C(=O)N2CCC(O)CC2)CCN1c1ccc(C(F)(F)F)cn1` belongs “Active”. To `C[C@@H]1CN(Cc2c[nH]nc2C(=O)Nc2ccncc2)CCN1c1ccc(C(F)(F)F)cn1` belongs “Active”. On to `C[C@@H]1CN(Cc2c[nH]nc2C(=O)N2CCC(O)C2)CCN1c1ccc(C(F)(F)F)cn1` (some centres not stated), for which the inhibition entry is “Active”. Next, `C[C@@H]1CN(Cc2c[nH]nc2C2=CCN(C=O)CC2)CCN1c1ccc(C(F)(F)F)cn1`: “Active”; `C[C@@H]1CN(Cc2c[nH]nc2-c2cc3ccccc3[nH]2)CCN1c1ccc(C(F)(F)F)cn1`: “Active”; `C[C@@H]1CN(Cc2c[nH]nc2-c2nc3cc(F)ccc3[nH]2)CCN1c1ccc(C(F)(F)F)cn1`: “Active”. To `C[C@@H]1CN(Cc2c[nH]nc2C2=CCN(C(=O)CCO)CC2)CCN1c1ccc(C(F)(F)F)cn1` belongs “Active”; to `N#Cc1c[nH]c(-c2n[nH]cc2CN2CCN(c3ccc(C(F)(F)F)cn3)[C@H](C(F)(F)F)C2)c1`, “Active”. To `CC(O)CNC(=O)c1c[nH]c(-c2n[nH]cc2CN2CCN(c3ccc(C(F)(F)F)cn3)[C@H](C)C2)c1` (some centres not stated) belongs “Active”.

Consider `C[C@@H]1CN(Cc2c[nH]nc2-c2cc(C(N)=O)co2)CCN1c1ccc(C(F)(F)F)cn1`, for which the inhibition entry was “Active”.

Turning to `C[C@@H]1CN(Cc2c[nH]nc2-c2nc(C(N)=O)c[nH]2)CCN1c1ccc(C(F)(F)F)cn1`, the inhibition result is “Active”. For `C[C@@H]1CN(Cc2c[nH]nc2-c2cc(C#N)c[nH]2)CCN1c1ccc(C(F)(F)F)cn1`, the inhibition result was “Active”.

Take `C[C@@H]1CN(Cc2c[nH]nc2-c2cc(C(=O)N(C)C)c[nH]2)CCN1c1ccc(C(F)(F)F)cn1`: the inhibition entry is “Active”.

Turning to `C[C@@H]1CN(Cc2c[nH]nc2C2CCNCC2)CCN1c1ccc(C(F)(F)F)cn1`, the inhibition result was “Active”.
